Reference: paper PMC8198871, “Suppression of Breast Cancer by Small Molecules That Block the Prolactin Receptor” (Cancers, 2021)

How the values were obtained:
[1] = target: T1, prolactin receptor (PRLR) (Homo sapiens, UniProt P16471); assay: microscale thermophoresis; confirmed by isothermal titration calorimetry; assay type: binding
T1 construct: extracellular domain (ECD), purified recombinant
T1 sequence (P16471 25-234 limits assumed): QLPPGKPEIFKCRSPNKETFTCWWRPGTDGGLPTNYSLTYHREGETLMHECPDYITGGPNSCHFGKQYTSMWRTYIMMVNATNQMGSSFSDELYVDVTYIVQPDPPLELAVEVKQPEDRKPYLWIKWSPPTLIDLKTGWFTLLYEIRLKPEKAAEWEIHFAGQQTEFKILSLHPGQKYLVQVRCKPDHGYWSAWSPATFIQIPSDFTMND

[2] = target: T2, hypocretin receptor 1 (HCRTR1) (Homo sapiens, UniProt O43613); assay: DiscoverX GPCR selectivity panel, multiple doses; assay type: cell-based
T2 sequence (O43613 1-425): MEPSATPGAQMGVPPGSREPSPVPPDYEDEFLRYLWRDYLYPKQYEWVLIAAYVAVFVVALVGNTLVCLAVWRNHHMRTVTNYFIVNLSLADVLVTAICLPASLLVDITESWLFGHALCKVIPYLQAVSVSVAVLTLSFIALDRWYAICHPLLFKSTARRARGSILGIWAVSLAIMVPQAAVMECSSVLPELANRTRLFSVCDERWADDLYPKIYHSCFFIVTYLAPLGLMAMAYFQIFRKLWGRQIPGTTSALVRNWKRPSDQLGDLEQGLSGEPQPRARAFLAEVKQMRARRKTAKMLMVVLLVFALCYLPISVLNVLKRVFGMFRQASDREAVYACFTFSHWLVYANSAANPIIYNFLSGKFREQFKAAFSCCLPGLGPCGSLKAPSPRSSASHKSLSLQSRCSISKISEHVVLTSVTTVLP

[3] = target: serotonin receptor 2A (HTR2A) (Homo sapiens, UniProt P28223); assay: DiscoverX GPCR selectivity panel, multiple doses; assay type: cell-based
[4] = target: T3, serotonin receptor 2C (HTR2C) (Homo sapiens, UniProt P28335); assay: DiscoverX GPCR selectivity panel, multiple doses; assay type: cell-based
T3 sequence (P28335 33-458): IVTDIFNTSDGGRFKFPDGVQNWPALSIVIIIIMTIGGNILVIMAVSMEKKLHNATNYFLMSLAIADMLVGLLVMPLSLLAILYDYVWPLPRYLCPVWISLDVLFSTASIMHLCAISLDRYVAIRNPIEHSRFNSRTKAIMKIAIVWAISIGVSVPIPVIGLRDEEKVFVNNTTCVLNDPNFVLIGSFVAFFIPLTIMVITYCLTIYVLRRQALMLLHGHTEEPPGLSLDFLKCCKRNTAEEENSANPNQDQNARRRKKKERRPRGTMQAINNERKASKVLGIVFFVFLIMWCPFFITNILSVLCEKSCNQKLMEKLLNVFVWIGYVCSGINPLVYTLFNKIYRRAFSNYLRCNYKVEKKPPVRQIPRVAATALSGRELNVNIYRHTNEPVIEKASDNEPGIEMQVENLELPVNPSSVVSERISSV

Sequence of serotonin receptor 2A (HTR2A) (P28223 whole entry): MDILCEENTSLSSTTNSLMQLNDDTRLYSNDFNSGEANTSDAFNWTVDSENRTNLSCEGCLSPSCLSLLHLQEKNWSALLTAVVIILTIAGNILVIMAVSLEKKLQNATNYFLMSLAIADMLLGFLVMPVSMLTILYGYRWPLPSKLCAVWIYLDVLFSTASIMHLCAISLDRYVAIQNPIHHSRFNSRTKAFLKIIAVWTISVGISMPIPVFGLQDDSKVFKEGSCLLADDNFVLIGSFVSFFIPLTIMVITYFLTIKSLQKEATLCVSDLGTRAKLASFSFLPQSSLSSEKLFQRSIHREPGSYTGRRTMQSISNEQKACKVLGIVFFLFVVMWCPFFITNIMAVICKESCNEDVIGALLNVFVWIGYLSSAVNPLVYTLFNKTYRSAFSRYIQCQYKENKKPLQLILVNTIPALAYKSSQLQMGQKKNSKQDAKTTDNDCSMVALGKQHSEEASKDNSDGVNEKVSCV

Kd [1]: 3.31 µM | IC50 [2]: 6.71 µM | IC50 [3]: 2.39 µM | IC50 [4]: 3.48 µM
SMILES: CCN(CC)c1ccc(/C=N/NC(=O)c2c(Cl)cnn2C)c(O)c1 [SMI-6]
